Experimental data reported in patent publication US5120748A, “Substituted 1,2,3,6-tetrahydropyridines as central nervous system agents” (Warner-Lambert Company, priority 1991, dated 1992).

How the values were obtained:
brain dopamine synthesis = test: Reversal of brain dopamine synthesis in rats (inhibition of dopamine synthesis); format: in vivo; details: 10 mg/kg, IP
Description: (§1) The compounds of Formula I are valuable dopaminergic agents. […] Thus, the compounds of Formula I were tested for their ability to inhibit locomotor activity in mice according to the assay described by J. R. McLean, et al, Pharmacology, Biochemistry and Behavior, Volume 8, pages 97-99 (1978); for their ability to inhibit [^3 H]-spiroperidol binding in a receptor assay described by D. Griogoriadis and P. Seeman, Journal of Neurochemistry, Volume 44, pages 1925-1935 (1985); and for their ability to inhibit dopamine synthesis in rats according to the protocol described by J. R. Walters and R. H. Roth, Naunyn-Schmiedeberg's Archives of Pharmacology, Volume 296, pages 5-14 (1976). The above test methods are incorporated herein by reference. The data in the table show the dopaminergic activity of representative compounds of Formula I.

locomotor activity = test: Inhibition of locomotor activity in mice; format: in vivo; details: Mus musculus, IP
Description: as §1

[1] = target: [^3 H]spiroperidol binding; test: Inhibition of [^3 H]spiroperidol binding in a receptor assay; details: [^3 H]spiroperidol radioligand
Description: as §1

SMILES	% Reversal of Brain Dopamine Synthesis in Rats (brain dopamine synthesis) [%]	ED50 (locomotor activity) [mg/kg]	IC50 [1] [µM]
C1=C(c2ccccc2)CCN(CCSCc2cccnc2)C1.Cl.Cl [Example 1, 3-[[[2-(1,2,3,6-Tetrahydro-4-phenyl-1-pyridinyl)ethyl]thio]methyl]pyridine, dihydrochloride]	70	0.18	–
C1=C(c2cccs2)CCN(CCCSc2ccncc2)C1 [Example 2, 4-[[3-[3,6-Dihydro-4-(2-thienyl)-1(2H)-pyridinyl]propyl]thio]pyridine]	–	0.5	86
C1=C(c2ccccc2)CCN(CCCSc2ccncc2)C1 [Example 3, 4-[[3-(3,6-Dihydro-4-phenyl-1(2H)-pyridinyl)propyl]thio]pyridine]	48	0.4	46
C1=C(c2ccccc2)CCN(CCCCSc2ccncc2)C1 [Example 4, 1,2,3,6-Tetrahydro-4-phenyl-1-[4-(4-pyridinylthio)butyl]pyridine]	82	1	92
C1=C(c2cccs2)CCN(CCCCSc2ccncc2)C1.Cl.Cl [Example 5, 1,2,3,6-Tetrahydro-1-[4-(4-pyridinylthio)butyl]-4-(2-thienyl)pyridine, dihydrochloride]	47	1.8	190
